Measurements as given in US20230077362A1 (CORTEVA AGRISCIENCE LLC, priority 2019, published 2023).

Assays:
[1] = test system: Beet Armyworm (Spodoptera exigua) ("BAW"), second instar larvae; test: Bioassay on beet armyworm (BAW), 128-well diet tray assay; format: in vivo; settings: Spodoptera exigua, read-out: BAW (Biological Results, rating)
In short: (§1)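 After sealing with a clear self-adhesive lid, the trays are incubated at 25° C. with 14 h light and 10 h dark for 5 to 7 days; mortality in each well is recorded as a percentage and averaged across the eight wells.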

[2] = test system: Cabbage Looper (Trichoplusia ni) ("CL"), second instar larvae; test: Bioassay on cabbage looper (CL), 128-well diet tray assay; format: in vivo; settings: Trichoplusia ni, read-out: CL (Biological Results, rating)
In short: as §1

Row | Compound | pest or weed control at 50 µg/cm2 [1] [%] | pest or weed control at 50 µg/cm2 [2] [%]
1 | CN(C)c1cccc(N2C(=O)CS/C2=N\C(=O)Nc2ccc(-c3ncn(-c4ccc(OC(F)(F)F)cc4)n3)cc2F)c1 [Compound J84, (Z)-1-(3-(3-(Dimethylamino)phenyl)-4-oxothiazolidin-2-ylidene)-3-(2-fluoro-4-(1-(4-(trifluoromethoxy)phenyl)-1H-1,2,4-triazol-3-yl)phenyl)urea] | 50 to 100 | 50 to 100
2 | CNc1ccc(C(C)C)c(N2C(=O)CS/C2=N\C(=O)Nc2ccc(-c3ncn(-c4ccc(OC(F)(F)F)cc4)n3)cc2F)c1 [Compound J85, (Z)-1-(2-Fluoro-4-(1-(4-(trifluoromethoxy)phenyl)-1H-1,2,4-triazol-3-yl)phenyl)-3-(3-(2-isopropyl-5-(methylamino)phenyl)-4-oxothiazolidin-2-ylidene)urea] | 50 to 100 | 50 to 100
3 | COc1cc(-c2ncn(-c3ccc(OC(F)(F)F)cc3)n2)ccc1NC(=O)/N=C1\SCC(=O)N1c1cc(N(C)C)ccc1C(C)C [Compound J89, (Z)-1-(3-(5-(Dimethylamino)-2-isopropylphenyl)-4-oxothiazolidin-2-ylidene)-3-(2-methoxy-4-(1-(4-(trifluoromethoxy)phenyl)-1H-1,2,4-triazol-3-yl)phenyl)urea] | 50 to 100 | 50 to 100
4 | COc1cc(-c2ncn(-c3ccc(OC(F)(F)F)cc3)n2)ccc1NC(=O)/N=C1\SCC(=O)N1c1cc(C)ccc1C(C)OC (stereo not drawn) [Compound J90, (Z)-1-(2-Methoxy-4-(1-(4-(trifluoromethoxy)phenyl)-1H-1,2,4-triazol-3-yl)phenyl)-3-(3-(2-(1-methoxyethyl)-5-methylphenyl)-4-oxothiazolidin-2-ylidene)urea] | 50 to 100 | 50 to 100
5 | COc1cc(-c2ncn(-c3ccc(OC(F)(F)F)cc3)n2)ccc1NC(=O)/N=C1\SCC(=O)N1c1cc(C)ccc1OCCC(F)(F)F [Compound J91, (Z)-1-(2-Methoxy-4-(1-(4-(trifluoromethoxy)phenyl)-1H-1,2,4-triazol-3-yl)phenyl)-3-(3-(5-methyl-2-(3,3,3-trifluoropropoxy)phenyl)-4-oxothiazolidin-2-ylidene)urea] | 50 to 100 | 50 to 100
6 | COc1ccc(OCCC(F)(F)F)c(N2C(=O)CS/C2=N\C(=O)Nc2ccc(-c3ncn(-c4ccc(OC(F)(F)F)cc4)n3)cc2F)c1 [Compound J92, (Z)-1-(2-Fluoro-4-(1-(4-(trifluoromethoxy)phenyl)-1H-1,2,4-triazol-3-yl)phenyl)-3-(3-(5-methoxy-2-(3,3,3-trifluoropropoxy)phenyl)-4-oxothiazolidin-2-ylidene)urea] | 50 to 100 | 50 to 100
7 | Cc1ccc(OCCC(F)(F)F)c(N2C(=O)CS/C2=N\C(=O)Nc2ccc(-c3ncn(-c4ccc(OC(F)(F)F)cc4)n3)cc2C(C)C)c1 [Compound J93, (Z)-1-(2-Isopropyl-4-(1-(4-(trifluoromethoxy)phenyl)-1H-1,2,4-triazol-3-yl)phenyl)-3-(3-(5-methyl-2-(3,3,3-trifluoropropoxy)phenyl)-4-oxothiazolidin-2-ylidene)urea] | 50 to 100 | 50 to 100
8 | COC(C)c1ccc(C)cc1N1C(=O)CS/C1=N\C(=O)Nc1ccc(-c2ncn(-c3ccc(OC(F)(F)F)cc3)n2)cc1C(C)C (stereo not drawn) [Compound J94, (Z)-1-(2-Isopropyl-4-(1-(4-(trifluoromethoxy)phenyl)-1H-1,2,4-triazol-3-yl)phenyl)-3-(3-(2-(1-methoxyethyl)-5-methylphenyl)-4-oxothiazolidin-2-ylidene)urea] | 50 to 100 | 50 to 100
9 | Cc1ccc(C(C)C)c(N2C(=O)CS/C2=N\C(=O)Nc2c(C)cc(-c3ncn(-c4ccc(OC(F)(F)F)cc4)n3)cc2C)c1 [Compound J95, (Z)-1-(2,6-Dimethyl-4-(1-(4-(trifluoromethoxy)phenyl)-1H-1,2,4-triazol-3-yl)phenyl)-3-(3-(2-isopropyl-5-methylphenyl)-4-oxothiazolidin-2-ylidene)urea] | 50 to 100 | 50 to 100
10 | Cc1cc(-c2ncn(-c3ccc(OC(F)(F)F)cc3)n2)cc(C)c1NC(=O)/N=C1\SCC(=O)N1c1cc(N(C)C)ccc1C(C)C [Compound J96, (Z)-1-(2,6-Dimethyl-4-(1-(4-(trifluoromethoxy)phenyl)-1H-1,2,4-triazol-3-yl)phenyl)-3-(3-(5-(dimethylamino)-2-isopropylphenyl)-4-oxothiazolidin-2-ylidene)urea] | 50 to 100 | 50 to 100
11 | COC(C)c1ccc(C)cc1N1C(=O)CS/C1=N\C(=O)Nc1c(C)cc(-c2ncn(-c3ccc(OC(F)(F)F)cc3)n2)cc1C (stereo not drawn) [Compound J97, (Z)-1-(2,6-Dimethyl-4-(1-(4-(trifluoromethoxy)phenyl)-1H-1,2,4-triazol-3-yl)phenyl)-3-(3-(2-(1-methoxyethyl)-5-methylphenyl)-4-oxothiazolidin-2-ylidene)urea] | 50 to 100 | 50 to 100
12 | COc1ccc(C(C)C)c(N2C(=O)CS/C2=N\C(=O)Nc2c(C)cc(-c3ncn(-c4ccc(OC(F)(F)F)cc4)n3)cc2C)c1 [Compound J98, (Z)-1-(2,6-Dimethyl-4-(1-(4-(trifluoromethoxy)phenyl)-1H-1,2,4-triazol-3-yl)phenyl)-3-(3-(2-isopropyl-5-methoxyphenyl)-4-oxothiazolidin-2-ylidene)urea] | 50 to 100 | 50 to 100
13 | Cc1ccc(C(C)C)c(N2C(=O)CS/C2=N\C(=O)Nc2ccc(-c3ncn(-c4ccc(OC(F)(F)F)cc4)n3)cc2C(C)C)c1 [Compound J99, (Z)-1-(2-Isopropyl-4-(1-(4-(trifluoromethoxy)phenyl)-1H-1,2,4-triazol-3-yl)phenyl)-3-(3-(2-isopropyl-5-methylphenyl)-4-oxothiazolidin-2-ylidene)urea] | 50 to 100 | 50 to 100
14 | COc1ccc(C(C)C)c(N2C(=O)CS/C2=N\C(=O)Nc2ccc(-c3ncn(-c4ccc(OC(F)(F)F)cc4)n3)cc2C(C)C)c1 [Compound J100, (Z)-1-(2-Isopropyl-4-(1-(4-(trifluoromethoxy)phenyl)-1H-1,2,4-triazol-3-yl)phenyl)-3-(3-(2-isopropyl-5-methoxyphenyl)-4-oxothiazolidin-2-ylidene)urea] | 50 to 100 | 50 to 100
15 | CC(C)c1cc(-c2ncn(-c3ccc(OC(F)(F)F)cc3)n2)ccc1NC(=O)/N=C1\SCC(=O)N1c1cc(N(C)C)ccc1C(C)C [Compound J101, (Z)-1-(3-(5-(Dimethylamino)-2-isopropylphenyl)-4-oxothiazolidin-2-ylidene)-3-(2-isopropyl-4-(1-(4-(trifluoromethoxy)phenyl)-1H-1,2,4-triazol-3-yl)phenyl)urea] | 50 to 100 | 50 to 100
16 | Cc1cc(-c2ncn(-c3ccc(OC(F)(F)F)cc3)n2)ccc1NC(=O)/N=C1\SCC(=O)N1c1cc(N(C)C)ccc1OCCC(F)(F)F [Compound J102, (Z)-1-(3-(5-(Dimethylamino)-2-(3,3,3-trifluoropropoxy)phenyl)-4-oxothiazolidin-2-ylidene)-3-(2-methyl-4-(1-(4-(trifluoromethoxy)phenyl)-1H-1,2,4-triazol-3-yl)phenyl)urea] | 50 to 100 | 50 to 100
17 | CCNc1ccc(C(C)C)c(N2C(=O)CS/C2=N\C(=O)Nc2ccc(-c3ncn(-c4ccc(OC(F)(F)F)cc4)n3)cc2F)c1 [Compound J106, (Z)-1-(3-(5-(Ethylamino)-2-isopropylphenyl)-4-oxothiazolidin-2-ylidene)-3-(2-fluoro-4-(1-(4-(trifluoromethoxy)phenyl)-1H-1,2,4-triazol-3-yl)phenyl)urea] | 50 to 100 | 50 to 100
18 | CCCNc1ccc(C(C)C)c(N2C(=O)CS/C2=N\C(=O)Nc2ccc(-c3ncn(-c4ccc(OC(F)(F)F)cc4)n3)cc2F)c1 [Compound J107, (Z)-1-(2-Fluoro-4-(1-(4-(trifluoromethoxy)phenyl)-1H-1,2,4-triazol-3-yl)phenyl)-3-(3-(2-isopropyl-5-(propylamino)phenyl)-4-oxothiazolidin-2-ylidene)urea] | 50 to 100 | 50 to 100
19 | CCCN(CCC)c1ccc(C(C)C)c(N2C(=O)CS/C2=N\C(=O)Nc2ccc(-c3ncn(-c4ccc(OC(F)(F)F)cc4)n3)cc2F)c1 [Compound J108, (Z)-1-(3-(5-(Dipropylamino)-2-isopropylphenyl)-4-oxothiazolidin-2-ylidene)-3-(2-fluoro-4-(1-(4-(trifluoromethoxy)phenyl)-1H-1,2,4-triazol-3-yl)phenyl)urea] | 50 to 100 | 50 to 100
20 | COc1cc(-c2ncn(-c3ccc(OC(F)(F)F)cc3)n2)ccc1NC(=O)/N=C1\SCC(=O)N1c1cc(N(C)C)ccc1OCCC(F)(F)F [Compound J109, (Z)-1-(3-(5-(Dimethylamino)-2-(3,3,3-trifluoropropoxy)phenyl)-4-oxothiazolidin-2-ylidene)-3-(2-methoxy-4-(1-(4-(trifluoromethoxy)phenyl)-1H-1,2,4-triazol-3-yl)phenyl)urea] | 50 to 100 | 50 to 100
21 | CCc1cc(-c2ncn(-c3ccc(OC(F)(F)F)cc3)n2)ccc1NC(=O)/N=C1\SCC(=O)N1c1cc(N(C)C)ccc1OCCC(F)(F)F [Compound J110, (Z)-1-(3-(5-(Dimethylamino)-2-(3,3,3-trifluoropropoxy)phenyl)-4-oxothiazolidin-2-ylidene)-3-(2-ethyl-4-(1-(4-(trifluoromethoxy)phenyl)-1H-1,2,4-triazol-3-yl)phenyl)urea] | 50 to 100 | 50 to 100
